In PubChem BioAssay (NCI):
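Dose response: 5 concentrations. Exposure: 48 h. Format: 96-well plates. Endpoint: linear interpolation; highest concentration if not reached. Abbreviation: GI50, concentration required for 50% inhibition of growth. TGI is the concentration that stops growth completely.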

Legend:
Assay in all cases: growth of human tumour cells (NCI), 48 h; in the data active = GI50 below about 0.43 µM; inactive = the rest
[1] = tested on: OVCAR-5 ovarian
[2] = tested on: TK-10 renal
[3] = tested on: IGROV1 ovarian
[4] = tested on: HOP-62 NSCLC
[5] = tested on: HL-60(TB) leukemia
[6] = tested on: OVCAR-8 ovarian
[7] = tested on: CCRF-CEM leukemia
[8] = tested on: DU-145 prostate
[9] = tested on: HT29 colon
[10] = tested on: SF-268 CNS
[11] = tested on: KM12 colon
[12] = tested on: NCI-H460 lung
[13] = tested on: HOP-92 NSCLC
[14] = tested on: 786-0 renal
[15] = tested on: SK-OV-3 ovarian
[16] = tested on: ACHN renal
[17] = tested on: UO-31 renal
[18] = tested on: SF-539 CNS
[19] = tested on: U251 CNS
[20] = tested on: COLO 205 colon
[21] = tested on: NCI-H23 lung
[22] = tested on: MOLT-4 leukemia
[23] = tested on: MDA-MB-435
[24] = tested on: MDA-MB-231 breast
[25] = tested on: A549 NSCLC
[26] = tested on: SR leukemia
[27] = tested on: BT-549 breast
[28] = tested on: SF-295 CNS
[29] = tested on: K-562 leukemia
[30] = tested on: MCF7 breast
[31] = tested on: M14 melanoma
[32] = tested on: LOX IMVI melanoma
[33] = tested on: NCI/ADR-RES ovarian
[34] = tested on: RXF 393 renal
[35] = tested on: NCI-H522 lung
[36] = tested on: HS 578T breast
[37] = tested on: RPMI-8226 leukemia
[38] = tested on: HCT-15 colon
[39] = tested on: SK-MEL-28 melanoma
[40] = tested on: T-47D breast
[41] = tested on: SNB-19 CNS
[42] = tested on: OVCAR-4 ovarian
[43] = tested on: HCT-116 colon
[44] = tested on: PC-3 prostate
[45] = tested on: HCC-2998 colon
[46] = tested on: SW-620 colon
[47] = tested on: SK-MEL-5 melanoma
[48] = tested on: UACC-257 melanoma
[49] = tested on: SK-MEL-2 melanoma
[50] = tested on: MALME-3M melanoma
[51] = tested on: SNB-75 CNS
[52] = tested on: SN12C renal
[53] = tested on: UACC-62 melanoma
[54] = tested on: A498 renal
[55] = tested on: CAKI-1 renal
[56] = tested on: EKVX NSCLC
[57] = tested on: NCI-H226 lung

COc1cccc(-c2cc(-c3cccc(NS(C)(=O)=O)c3)nc(N)c2C#N)c1O
2770 nM: TGI [5]
> 52700 nM: TGI [17]
752 nM: TGI [28]
151 nM: TGI [23]
> 100000 nM: TGI [1] | TGI [2] | TGI [4] | TGI [6] | TGI [7] | TGI [8] | TGI [10] | TGI [11] | TGI [14] | TGI [15] | TGI [16] | TGI [18] | TGI [19] | TGI [21] | TGI [22] | TGI [24] | TGI [25] | TGI [26] | TGI [29] | TGI [30] | TGI [31] | TGI [32] | TGI [38] | TGI [39] | TGI [41] | TGI [42] | TGI [43] | TGI [44] | TGI [46] | TGI [48] | TGI [49] | TGI [52] | TGI [53] | TGI [56] | TGI [57]
> 86300 nM: TGI [3]
11800 nM: TGI [37]
5150 nM: TGI [51]
88900 nM: TGI [55]
2340 nM: TGI [33]
> 47400 nM: TGI [27]
active: GI50 [3] 57.7 nM | GI50 [4] 135 nM | GI50 [5] 86.1 nM | GI50 [6] 351 nM | GI50 [7] 153 nM | GI50 [8] 182 nM | GI50 [9] 92.4 nM | GI50 [11] 107 nM | GI50 [12] 316 nM | GI50 [14] 375 nM | GI50 [15] 149 nM | GI50 [17] 208 nM | GI50 [18] 154 nM | GI50 [19] 127 nM | GI50 [20] 128 nM | GI50 [21] 341 nM | GI50 [22] 349 nM | GI50 [23] 27.5 nM | GI50 [25] 293 nM | GI50 [26] 56.2 nM | GI50 [28] 43.1 nM | GI50 [29] 50.8 nM | GI50 [30] 279 nM | GI50 [31] 83.7 nM | GI50 [32] 136 nM | GI50 [33] 154 nM | GI50 [34] 104 nM | GI50 [35] 16.3 nM | GI50 [36] 90.1 nM | GI50 [37] 268 nM | GI50 [38] 82.4 nM | GI50 [40] 317 nM | GI50 [43] 78.3 nM | GI50 [44] 111 nM | GI50 [45] 328 nM | GI50 [46] 90.4 nM | GI50 [47] 74.7 nM | GI50 [49] 132 nM | GI50 [50] 46.5 nM | GI50 [51] 79.7 nM | GI50 [53] 64 nM | GI50 [54] 99.9 nM | GI50 [55] 141 nM | GI50 [57] 372 nM
75 nM: TGI [35]
1910 nM: TGI [20]
> 31500 nM: TGI [13]
93400 nM: TGI [50]
3930 nM: TGI [47]
1390 nM: TGI [34]
> 27100 nM: TGI [45]
inactive: GI50 [1] 1080 nM | GI50 [2] 500 nM | GI50 [10] 587 nM | GI50 [13] 3190 nM | GI50 [16] 846 nM | GI50 [24] 815 nM | GI50 [27] 716 nM | GI50 [39] 571 nM | GI50 [41] 486 nM | GI50 [42] 610 nM | GI50 [48] 471 nM | GI50 [52] 505 nM | GI50 [56] 561 nM
4420 nM: TGI [36]
35000 nM: TGI [54]
58600 nM: TGI [40]
> 39500 nM: TGI [12]
